# Laboratory results reported in patent publication US20230321253A1, “BIFUNCTIONAL COMPOUNDS AND PHARMACEUTICAL USES THEREOF” (RISEN (SUZHOU) PHARMA TECH CO., LTD., priority 2022, published 2023).
# Target: T1, KRAS-G12D protein (Homo sapiens, UniProt P01116, G12D)
# T1 construct: host or cells: Aspc-1 cells
# Experiment: KRAS-G12D protein degradation study in Aspc-1 cells (western blot)
# Assay type: cell-based
# Conditions: for inhibition at 0.1 µM / inhibition at 1 µM / inhibition at 0.05 µM: ASPC1, 24 h; for inhibition at 0.1 µM / Rate of protein degradation (KRAS^G12D): Aspc-1 cells treated with 0.1 μM compound; for inhibition at 0.1 µM / inhibition at 1 µM / inhibition at 0.05 µM / Rate of protein degradation (KRAS^G12D): 24 hours; for inhibition at 0.1 µM / inhibition at 1 µM: read-out: Rate of protein degradation (KRAS^G12D); for inhibition at 1 µM: Aspc-1 cells treated with 1 μM compound; for inhibition at 0.05 µM: Aspc-1 cells treated with 50 nM compound, read-out: Rate of degradation (KRAS^G12D); for DC50: Aspc-1 cells, read-out: DC50 of test compound-induced KRAS^G12D protein degradation
# Procedure: Aspc-1 (Cobioer, CBP60546) cells in exponential growth phase were inoculated on a 6-well cell culture plate (Corning, 3516) at density of 1E6/well; and cells in the plate were cultured in 37° C. incubator containing 5% carbon dioxide. The next day, test compounds were dissolved in DMSO (Sigma, RNBF5902) for the preparation of a 10 mM concentration stock solution. The stock solution was diluted with complete medium (RPMI-1640 supplemented with 10% fetal bovine serum, 1% penicillin-streptomycin), yielding working solutions of various concentrations. The plate, after the addition of compounds, was placed in a 5% carbon dioxide incubator, and incubated at 37° C. for 24 hours (final DMSO concentration was 0.1%). The plate was then removed from the incubator, and the cells were washed twice with precooled PBS (Gibco, 14190250), followed by addition of 80 μL RIPA lysis buffer (containing protease inhibitor (Invitrogen™, AM2696)) to each well. The adherent cells were scraped off with a cell scraper, and the cell lysate was transferred to a 1.5 mL centrifuge tube followed with a 30-minute incubation on ice. The lysate was then clarified with centrifugation at 14000 rpm for 10 min at 4° C. The supernatant was transferred into a new 1.5 mL centrifuge tube, and protein concentration was measured with BCA protein detection kit (Thermo Fisher, 23225). KRAS-G12D protein level was assessed by western blot.
# A mixture of cell lysate (40 μL) and loading buffer (10 μL 5×SDS (Beyotime, P0015L)) was denatured in a water bath at 95° C. for 10 min. The denatured protein sample, at 30 μL/well, was loaded into the corresponding well of a 4-20% Bis-Tris gel (Kingsley, M00656). Protein samples were initially electrophoresed at 80 V for 30 minutes, followed by 120 V for 40 minutes, until the bromophenol blue strip ran to an appropriate position. After electrophoresis, iBlot2 (Life Technologies, IB21001) was used to transfer the separated samples onto PVDF film. The PVDF membrane was washed with double-distilled water and then blocked in TBST (Thermo Scientific, 28360) buffer containing 5% non-fat milk, for 2 hours. Blocked membrane was rinsed with tris-buffered saline tween-20 (Thermo Scientific, 28360, TBST) three times, 10 minutes each. Membrane was then incubated with 1:1000 diluted KRAS primary antibody (CST, cat #14429S) overnight at 4° C. Membrane was rinsed as described previously followed by 1 hour incubation of secondary antibody at room temperature. After washing the film three times with TBST, ECL color developing solution was applied, and image was captured with Biorad Chemi Doc gel imager. The band gray value was quantified (Image Lab), and protein degradation level was calculated according to the following formula:
# Level of RAS protein expression=(RAS-compound/GAPDH)/(RAS-DMSO/GAPDH)
# Level of degradation (%)=(1−Rate of RAS protein expression)×100
# The symbols “−”, “+”, “++”, and “+++” indicate that the degradation level of KRAS^G12D protein induced by the test compounds was 10% or less, 11 to 30%, 31 to 60%, and greater than 60%, respectively.
# Half-maximum degradation concentrations (DC50s) of exemplary test compounds were calculated using GraphPad Prism and their values are shown in Table 6. The symbols “++++”, “+++”, “++” and “+” indicate DC50 equal or less than 10 nM, 11-50 nM, 51-100 nM, and 101-200 nM, respectively.
# T1 sequence (P01116 1-188 isoform P01116-2 G12D): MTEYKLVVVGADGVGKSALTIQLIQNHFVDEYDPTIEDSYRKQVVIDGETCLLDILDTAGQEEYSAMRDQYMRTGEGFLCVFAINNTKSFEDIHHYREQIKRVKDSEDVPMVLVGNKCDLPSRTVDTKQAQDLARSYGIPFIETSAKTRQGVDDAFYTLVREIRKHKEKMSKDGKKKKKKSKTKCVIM
compound,measurement,value
CCc1c(F)ccc2cc(O)cc(-c3ncc4c(N5CC6CCC(C5)N6)nc(OCC56CCCN5[C@@H](COC(=O)NCCOCCOCCC(=O)N[C@H](C(=O)N5C[C@H](O)C[C@H]5C(=O)N[C@@H](C)c5ccc(-c7scnc7C)cc5)C(C)(C)C)CC6)nc4c3F)c12 (stereo partly shown) [Compound 58],inhibition at 0.1 µM,11 to 30%
same,inhibition at 1 µM,31 to 60%
C#Cc1c(F)ccc2cc(O)cc(-c3ncc4c(N5CC6CCC(C5)N6)nc(O[C@@H]5CCN(CCCCCCCCCCCC(=O)N[C@H](C(=O)N6C[C@H](O)C[C@H]6C(=O)N[C@@H](C)c6ccc(-c7scnc7C)cc6)C(C)(C)C)C5)nc4c3F)c12 [Compound 87],inhibition at 0.1 µM,31 to 60%
C#Cc1c(F)ccc2cc(O)cc(-c3ncc4c(N5CC6CCC(C5)N6)nc(OC5CCN(CCOCCNC(=O)CO[C@@H]6C[C@H](C)CC[C@H]6C(C)C)C5)nc4c3F)c12 (stereo partly shown) [Compound 148],inhibition at 0.05 µM,≤ 10%
C#Cc1c(F)ccc2cc(O)cc(-c3ncc4c(N5CC6CCC(C5)N6)nc(OCC5(CN6CCC7(CC6)CC(N6CCC(c8ccc(C9CCC(=O)NC9=O)cc8)CC6)C7)CC5)nc4c3F)c12 (stereo not shown) [Compound 166],inhibition at 0.05 µM,> 60%
C#Cc1c(F)ccc2cc(O)cc(-c3ncc4c(N5CC6CCC(C5)N6)nc(OCC5(CN6CCC(c7ccc8c(C9CCC(=O)NC9=O)nn(C)c8c7)CC6)CC5)nc4c3F)c12 (stereo not shown) [Compound 99],Rate of protein degradation (KRAS^G12D),+++ (greater than 60%)
same,DC50,11 to 50 nM
C#Cc1c(F)ccc2cc(O)cc(-c3ncc4c(N5CC6CCC(C5)N6)nc(OC5CCN(CCCCCCCCCCCCOc6cc(-c7ncsc7C)ccc6CNC(=O)[C@@H]6C[C@@H](O)CN6C(=O)[C@@H](NC(=O)C6(F)CC6)C(C)(C)C)CC5)nc4c3F)c12 [Compound 78],inhibition at 0.1 µM,≤ 10%
C#Cc1c(F)ccc2cc(O)cc(-c3ncc4c(N5CC6CCC(C5)N6)nc(OCC5(CN6CCC7(CC6)CC(N6CCC(c8ccc9c(c8)C(=O)N(C8CCC(=O)NC8=O)C9=O)CC6)C7)CC5)nc4c3F)c12 (stereo not shown) [Compound 170],inhibition at 0.05 µM,31 to 60%
C#Cc1c(F)ccc2cc(O)cc(-c3ncc4c(N5CC6CCC(C5)N6)nc(OCC5(CN6CCC(C7CCN(c8ccc(NC9CCC(=O)NC9=O)cc8F)CC7)CC6)CC5)nc4c3F)c12 (stereo not shown) [Compound 140],inhibition at 0.05 µM,31 to 60%
C#Cc1c(F)ccc2cc(O)cc(-c3ncc4c(N5CC6CCC(C5)N6)nc(OC5CCN(CC(=O)N6CCC7(CC6)CC(N6CCC(c8ccc(NC9CCC(=O)NC9=O)cc8F)CC6)C7)CC5)nc4c3F)c12 (stereo not shown) [Compound 114],inhibition at 0.1 µM,> 60%
same,DC50,< 10 nM
C#Cc1c(F)ccc2cc(O)cc(-c3ncc4c(N5CC6CCC(C5)N6)nc(OCC5(CN6CCN(c7ccc(NC8CCC(=O)NC8=O)cc7F)CC6)CC5)nc4c3F)c12 (stereo not shown) [Compound 124],inhibition at 0.05 µM,11 to 30%
C#Cc1c(F)ccc2cc(O)cc(-c3ncc4c(N5CC6CCC(C5)N6)nc(O[C@H]5CCN(CCCCCCCCCC(=O)N[C@H](C(=O)N6C[C@H](O)C[C@H]6C(=O)N[C@@H](C)c6ccc(-c7scnc7C)cc6)C(C)(C)C)C5)nc4c3F)c12 [Compound 83],inhibition at 0.1 µM,11 to 30%
same,DC50,101 to 200 nM
C#Cc1c(F)ccc2cc(O)cc(-c3ncc4c(N5CC6CCC(C5)N6)nc(OCCCN5CCN(CCCC(=O)N[C@H](C(=O)N6C[C@H](O)C[C@H]6C(=O)NCc6ccc(-c7scnc7C)cc6)C(C)(C)C)CC5)nc4c3F)c12 [Compound 30],inhibition at 1 µM,11 to 30%
C#Cc1c(F)ccc2cc(O)cc(-c3ncc4c(N5CC6CCC(C5)N6)nc(OC[C@@H]5C[C@@H](NC(=O)CCCCCCCCCCC(=O)N[C@H](C(=O)N6C[C@H](O)C[C@H]6C(=O)N[C@@H](C)c6ccc(-c7scnc7C)cc6)C(C)(C)C)CN5C)nc4c3F)c12 [Compound 90],inhibition at 0.1 µM,≤ 10%
C#Cc1c(F)ccc2cc(O)cc(-c3ncc4c(N5CC6CCC(C5)N6)nc(OC5CCN(CCOCCOCCOCC(=O)N[C@H](C(=O)N6C[C@H](O)C[C@H]6C(=O)NCc6ccc(-c7scnc7C)cc6)C(C)(C)C)CC5)nc4c3F)c12 [Compound 54],inhibition at 1 µM,≤ 10%
C#Cc1c(F)ccc2cc(O)cc(-c3ncc4c(N5CC6CCC(C5)N6)nc(OC[C@@H]5C[C@@H](NC(=O)CCCCCCC(=O)N[C@H](C(=O)N6C[C@H](O)C[C@H]6C(=O)N[C@@H](C)c6ccc(-c7scnc7C)cc6)C(C)(C)C)CN5C)nc4c3F)c12 [Compound 91],Rate of protein degradation (KRAS^G12D),− (10% or less)
CCc1c(F)ccc2cc(O)cc(-c3ncc4c(N5CC6CCC(C5)N6)nc(OC5CCN(CCCCCCCCCCC(=O)N[C@H](C(=O)N6C[C@H](O)C[C@H]6C(=O)N[C@@H](C)c6ccc(-c7scnc7C)cc6)C(C)(C)C)CC5)nc4c3F)c12 [Compound 80],inhibition at 0.1 µM,31 to 60%
C#Cc1c(F)ccc2cc(O)cc(-c3ncc4c(N5CC6CCC(C5)N6)nc(OCC5(CN6CCC(C(=O)N7CCN(c8ccc(NC9CCC(=O)NC9=O)cc8F)CC7)CC6)CC5)nc4c3F)c12 (stereo not shown) [Compound 107],inhibition at 0.1 µM,11 to 30%
C#Cc1c(F)ccc2cc(O)cc(-c3ncc4c(N5CC6CCC(C5)N6)nc(OCC5(CN6CCN(C(=O)CN7CCN(c8ccc9c(c8)C(=O)N(C8CCC(=O)NC8=O)C9=O)CC7)CC6)CC5)nc4c3F)c12 (stereo not shown) [Compound 116],inhibition at 0.1 µM,31 to 60%
C#Cc1c(F)ccc2cc(O)cc(-c3ncc4c(N5CC6CCC(C5)N6)nc(OCCCN5CCN(CC(=O)N6CCN(c7cccc8c7C(=O)N(C7CCC(=O)NC7=O)C8=O)CC6)CC5)nc4c3F)c12 (stereo not shown) [Compound 62],inhibition at 0.1 µM,≤ 10%
same,inhibition at 1 µM,≤ 10%
C#Cc1c(F)ccc2cc(O)cc(-c3ncc4c(N5CC6CCC(C5)N6)nc(O[C@H]5CCN(CCCCCCCCCCCC(=O)N[C@H](C(=O)N6C[C@H](O)C[C@H]6C(=O)N[C@@H](C)c6ccc(-c7scnc7C)cc6)C(C)(C)C)C5)nc4c3F)c12 [Compound 84],inhibition at 0.1 µM,31 to 60%
C#Cc1c(F)ccc2cc(O)cc(-c3ncc4c(N5CC6CCC(C5)N6)nc(OCC5(CN6CCC(C(=O)Nc7ccc8c(C9CCC(=O)NC9=O)nn(C)c8c7)CC6)CC5)nc4c3F)c12 (stereo not shown) [Compound 159],inhibition at 0.05 µM,31 to 60%
C#Cc1c(F)ccc2cc(O)cc(-c3ncc4c(N5CC6CCC(C5)N6)nc(OCC5(CN6CCN(C(=O)CN7CCN(c8ccc(C(=O)NC9CCC(=O)NC9=O)nc8)CC7)CC6)CC5)nc4c3F)c12 (stereo not shown) [Compound 126],inhibition at 0.05 µM,≤ 10%
C#Cc1c(F)ccc2cc(O)cc(-c3ncc4c(N5CC6CCC(C5)N6)nc(OCC5CCN(CC(=O)N6CCC(c7ccc8c(C9CCC(=O)NC9=O)nn(C)c8c7)CC6)C5)nc4c3F)c12 (stereo not shown) [Compound 94],inhibition at 0.1 µM,31 to 60%
C#Cc1c(F)ccc2cc(O)cc(-c3ncc4c(N5CC6CCC(C5)N6)nc(OCC5(CN6CCC7(CC6)CCN(c6ccc8c(c6)C(=O)N(C6CCC(=O)NC6=O)C8=O)CC7)CC5)nc4c3F)c12 (stereo not shown) [Compound 127],inhibition at 0.05 µM,> 60%
C#Cc1c(F)ccc2cc(O)cc(-c3ncc4c(N5CC6CCC(C5)N6)nc(OC5CCN(CCCCCCCCCC(=O)N6CCN(C(=O)C[C@H](NC(=O)[C@@H]7CC(O)CN7C(=O)[C@@H](NC(=O)C7(F)CC7)C(C)(C)C)c7ccc(-c8scnc8C)cc7)CC6)C5)nc4c3F)c12 (stereo in doubt) [Compound 105],inhibition at 0.1 µM,31 to 60%
C#Cc1c(F)ccc2cc(O)cc(-c3ncc4c(N5CC6CCC(C5)N6)nc(OCC5CCN(CCCCCCCCCCC(=O)N6CCC(c7ccc8c(C9CCC(=O)NC9=O)nn(C)c8c7)CC6)C5)nc4c3F)c12 (stereo not shown) [Compound 57],inhibition at 0.1 µM,> 60%
same,inhibition at 1 µM,> 60%
C#Cc1c(F)ccc2cc(O)cc(-c3ncc4c(N5CC6CCC(C5)N6)nc(OCCCN5CCN(C(=O)CN6CCN(c7cccc8c7C(=O)N(C7CCC(=O)NC7=O)C8=O)CC6)CC5)nc4c3F)c12 (stereo not shown) [Compound 61],inhibition at 0.1 µM,≤ 10%
same,inhibition at 1 µM,≤ 10%
